{
  "source": "patent US11858879B2",
  "about": "“PARG inhibitors and method of use thereof” (City of Hope, priority 2017, dated 2024)",
  "target": "T1, PARG (Homo sapiens, UniProt Q86W56)",
  "T1 construct": "Recombinant full length PARG protein is generated from Sf9 insect cells; made in house; host or cells: Sf9 insect cells",
  "T1 sequence (Q86W56 whole entry)": "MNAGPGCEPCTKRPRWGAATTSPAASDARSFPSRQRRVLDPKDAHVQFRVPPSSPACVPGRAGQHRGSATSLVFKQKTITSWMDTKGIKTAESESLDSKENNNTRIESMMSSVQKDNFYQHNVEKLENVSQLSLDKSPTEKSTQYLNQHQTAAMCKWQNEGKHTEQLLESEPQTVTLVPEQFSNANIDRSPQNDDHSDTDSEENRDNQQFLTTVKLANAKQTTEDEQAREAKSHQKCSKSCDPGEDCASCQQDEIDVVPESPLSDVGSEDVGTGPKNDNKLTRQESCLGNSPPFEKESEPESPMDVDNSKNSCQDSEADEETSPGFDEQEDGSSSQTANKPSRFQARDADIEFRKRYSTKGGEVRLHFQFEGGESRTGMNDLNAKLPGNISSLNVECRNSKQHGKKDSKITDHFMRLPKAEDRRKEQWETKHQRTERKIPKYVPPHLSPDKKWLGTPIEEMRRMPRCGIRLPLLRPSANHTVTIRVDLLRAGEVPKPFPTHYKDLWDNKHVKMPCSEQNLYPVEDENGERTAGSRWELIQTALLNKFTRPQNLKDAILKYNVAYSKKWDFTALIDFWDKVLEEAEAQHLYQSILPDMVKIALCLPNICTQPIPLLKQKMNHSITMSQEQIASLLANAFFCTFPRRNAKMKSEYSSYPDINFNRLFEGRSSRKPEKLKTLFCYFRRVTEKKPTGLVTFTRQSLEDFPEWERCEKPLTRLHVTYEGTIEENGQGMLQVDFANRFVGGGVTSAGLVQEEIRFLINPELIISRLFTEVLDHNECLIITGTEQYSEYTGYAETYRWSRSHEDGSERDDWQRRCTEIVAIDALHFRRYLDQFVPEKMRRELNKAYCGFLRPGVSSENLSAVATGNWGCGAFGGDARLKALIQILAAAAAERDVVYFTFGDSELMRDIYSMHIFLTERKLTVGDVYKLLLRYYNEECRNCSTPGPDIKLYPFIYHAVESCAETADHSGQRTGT",
  "test": "PAR digestion assay (dot blotting with anti-PAR antibody)",
  "assay_type": "biochemical",
  "conditions": "PARG incubated with PAR for 20 min at room temperature with or without inhibitors, dot blot with anti-PAR antibody",
  "method": "Development of potent and cell-permeant PARG inhibitors via multi-step virtual screening and hierarchical selection. Forty candidates from National Cancer Institute (NCI) were selected to examine the efficacy of PARG inhibition by dot blot assay. PARG was incubated with PAR for 20 min at room temperature with or without inhibitors. PAR-digestion results were analyzed using dot blotting with anti-PAR antibody. […] PC and NC mean positive control (PAR only) and negative control (no inhibitor), respectively. IC50 value of compound 34 was measured by dot blotting with anti-PAR antibody in a dose course of compound 34.\nPAR digestion assay: Recombinant PARG protein were incubated with PAR (10 μM, calculated as the ADP-ribose unit) and DMSO (Negative control, NC) or small molecules for 20 minutes at room temperature. Positive control (PC) only contains PAR in PBS. Samples were spotted onto a nitrocellulose membrane. The membrane was blocked with TBST buffer (0.15 M NaCl, 0.01 M Tris-HCl at pH 7.4, 0.1% Tween 20) supplemented with 5% milk and extensively washed with TBST. The membrane was examined by anti-PAR antibody.\nRecombinant full length PARG protein is generated from Sf9 insect cells. Recombinant PAR is purified from a biochemical assay using PARP1. PARG is incubated with PAR in the presence of DMSO (Negative control, NC) or small chemical compounds for 20 minutes at room temperature. […]",
  "data": [
    {"smiles": "Cc1ccc(S/N=C/c2c(O)ccc3ccccc23)cc1", "note": "[Compound 34]", "values": [
      {"measurement": "inhibitory activity for PARG", "result": "inhibitory activity"},
      {"measurement": "inhibitory activity for PARG", "setting": "listed as #34", "result": "good inhibitory activity"}
    ]}
  ]
}
